Assay results: patent US6638524B2, “Cosmetics, foods and beverages supplemented with purified strictinin” (National Agricultural Research Organization, priority 2000, dated 2003)

Assays:
[1] = system: mast cells in abdominal cavity of rat; settings: literature report; cited from earlier work
[2] = system: CεGT inducible expression by IL-4 in human B cell line DND 39; test: expression of IgE heavy chain germline transcript (CεGT) induced by IL-4 in human B cell line DND 39 (IgE class switch suppression); type: cell-based; settings: strictinin 1, 10 and 25 μM added at the same time with IL-4, DND 39, FIG. 3
Procedure: (§1) Each of Fr. 1 to 5 in Experimental Example 1 was evaluated for its antiallergic action in vitro by a method for the expression of a transcript of an IgE heavy chain germline transcript which was to investigate the suppression of IgE production in human B cells (IgE class switch suppression). This is a method utilizing the fact that, when human B cells are stimulated by IL-4 to induce the production of IgE, a transcription is started from the upstream intron corresponding to an ε region (Cε) in the constant domain gene of the Ig gene whereupon a transcript (CεGT: germline transcript) is expressed and, after that, a class switch of IgE is resulted by a DNA recombination. CεGT is an RNA which is always expressed before the IgE production is induced and the expressed amount of CεGT is proportional to the class switch amount of the IgE gene. Therefore, when the degree of expressed amount of CεGT is detected, it is possible to estimate the IgE class switch amount.
A method for the expression of an IgE heavy chain germline transcript was carried out according to the following procedures. […]
Then, a cDNA library was prepared according to the following procedure. First, concentration of the extracted total RNA was measured by an absorptiometer, a portion of 10 μg was taken in a 0.6 mL tube and water was added thereto to make 11.8 μL. […]

[3] = system: CεGT inducible expression by IL-4 in human peripheral blood lymphocytes; test: expression of IgE heavy chain germline transcript (CεGT) induced by IL-4 in human peripheral blood lymphocytes; type: cell-based; settings: strictinin 25 μM added at the same time with IL-4, human peripheral blood lymphocytes, FIG. 4
Procedure: as §1
Human peripheral blood normal cells (monocytes; separated from the blood which was collected from a healthy human volunteer) was used instead of the human B cell line DND 39 of Experimental Example 3 and an antiallergic activity was measured by the same way as in the method for the expression of an IgE heavy chain germline transcript mentioned in Experimental Example 2. […]

O=C(O[C@@H]1Cc2c(O)cc(O)cc2O[C@@H]1c1ccc(O)c(O)c1)c1cc(O)c(O)c(O)c1 [epicatechin gallate]
liberation of histamine from mast cells [1]: suppress

O=C(O[C@@H]1Cc2c(O)cc(O)cc2O[C@@H]1c1cc(O)c(O)c(O)c1)c1cc(O)c(O)c(O)c1 [epigallocatechin gallate]
liberation of histamine from mast cells [1]: suppress

O=C(O[C@@H]1O[C@@H]2COC(=O)c3cc(O)c(O)c(O)c3-c3c(cc(O)c(O)c3O)C(=O)O[C@H]2[C@H](O)[C@H]1O)c1cc(O)c(O)c(O)c1 [strictinin]
IgE class switch by addition of IL-4 (CεGT inducible expression) [2]: strongly suppressed | IgE class switch by addition of IL-4 (CεGT inducible expression) [3]: strongly suppressed
